Tested on: sodium channel response in hTRPV1-N1E115 cells
Assay: FLIPR membrane potential assay of sodium channel response in hTRPV1-N1E115 cells with or without heat (47° C.) activation
Type: cell-based
Conditions: for hTRPV1-N1E Nav 0.1 mM (% inhibition) 25° C. / hTRPV1-N1E Nav 1 mM (% inhibition) 25° C.: 25° C. (no heat activation); for IC50: 47° C., read-out: hTRPV1-N1E IC50 (μM) 47° C.; for hTRPV1-N1E Nav 0.1 mM (% inhibition) 47° C. / hTRPV1-N1E Nav 1 mM (% inhibition) 47° C.: 47° C. (heat activated)
Text: In one embodiment, a modified FLIPR® (Fluorometric Imaging Plate Reader) based assay system was developed which is capable of discriminating between non-specific versus hTRPV1-mediated entry of test compounds. Advantageously, the assay system utilizes heat activated opening of hTRPV1 channels followed by an assessment of internal sodium channel block. The assay allows a permanently charged compound to selectively enter through opened hTRPV1 channels and that compound's potency in inhibiting sodium channels from the cytoplasm side of the same cell can be assessed and quantified.
The test compounds are diluted in the Assay Buffer and added to each well of a specific 384-well ‘compound plate’, which serves as a source plate for compound addition using the FLIPR® platform. The concentration of compounds in the compound-plate was adjusted to achieve the desired final concentration when added to the cells in the ‘cell-plate’. After completion of the dye incubation period, the dye loaded cell-plates and the compound source plates are inserted into the FLIPR® Tetra device with a 384 FLIPR® tip box (Molecular Devices, Inc.) according to manufacturer's instructions. The compounds are robotically added to the dye loaded cell-plates using software integral to the FLIPR® Tetra instrument.
Immediately following compound addition, hTRPV1 is activated, in one of the duplicate cell plates, by heating. Specifically, entire multi-well plate containing the compound-cells mixture is incubated at 47° C. for 10 minutes, after which they are returned to room temperature (about 25° C.) for a further 30 minutes. Heat activation of hTRPV1 was omitted from the replicate cell plate which was simply maintained at room temperature for the entire 40 minutes.
A membrane potential response is elicited in the dye- and compound-loaded cells by the addition of veratridine which is a known sodium channel ‘agonist’. As illustrated in an example herein, an agonist plate containing veratridine (Sigma) is prepared in advance and is inserted into suitable devices such as, e.g., the FLIPR® TETRA device for a “2nd addition” as instructed by the manufacturer. The concentration of veratridine in the ‘agonist plate’ was adjusted to achieve a final concentration of 100 μM when added to the cells in the cell-plate. Final concentrations of veratridine greater or lesser than 100 μM may also be used but the signal measured by the FLIPR® TETRA device or another suitable device may vary accordingly.
The exposure of the cells in the cell-plate to veratridine induces sodium channels in the cells to open and the resulting ion flux produces a membrane potential depolarization that is detected as a fluorescence signal by the FLIPR® Tetra Device. The activity of test compounds is determined by their ability to attenuate the veratridine-induced fluorescence signal, the most promising compounds are those that show an enhanced activity in the heat-activated cell plate over the non-heat-activated cell plate. This differential activity reflects enhanced compound uptake via the heat activated and open hTRPV1 channels and rests on the fact that sodium channel block requires test compounds to act from the cytoplasmic side of the cell membrane.
In vitro assays were developed for assessing the inhibition of sodium channel response with compounds following stimulation by heat (47° C.) in cells expressing hTRPV1.
(v) Membrane potential Assay to Assess Sodium Channel Function in hTRPV1-Expressing Cells • Cells were plated at 5000 per 50 μL [DMEM+10% FBS+300 μg/mL H\hygromycin] per well, in a 384 clear bottom poly-D-lysine coated plate and incubated at 37° C. and 5% CO2 for 48 hours. On the day of the assay, media were discarded gently and 30 μL of the dye [FMP blue dye was prepared in assay buffer] per well was added and dye-loading was allowed to proceed for 20 min at room temperature. […]

IC50 [µM] | Compound | hTRPV1-N1E Nav 0.1 mM (% inhibition) 25° C. | hTRPV1-N1E Nav 1 mM (% inhibition) 25° C. | hTRPV1-N1E Nav 0.1 mM (% inhibition) 47° C. | hTRPV1-N1E Nav 1 mM (% inhibition) 47° C.
10 to 100 | CC(C[N+](C)(C)C1CCCCC1)OC(=O)c1cccc(Cl)c1Cl.[I-] (stereo not drawn) [Example 29, N-[2-((2,3-Dichlorobenzoyl)oxy)propyl]-N,N-dimethyl-cyclohexanaminium iodide] | 36 (N = 4) % | 50 (N = 4) % | 52 (N = 4) % | 61 (N = 4) %
10 to 100 | CC(C[N+](C)(C)C1CCCCC1)OC(=O)c1cc2ccccc2s1.[I-] (stereo not drawn) [Example 35, N-[2-((Benzo[b]thiophene-2-carbonyl)oxy)propyl]-N,N-dimethyl-cyclohexanaminium iodide] | 35 (N = 4) % | – | 74 (N = 4) % | –
10 to 100 | Cc1cccc(C)c1C(=O)OC(C)C[N+](C)(C)C1CCC(C)CC1.[I-] (stereo not drawn) [Example 36, N-[2-((2,6-Dimethylbenzoyl)oxy)propyl]-N,N,4-trimethylcyclo-hexanaminium iodide] | 50 (N = 4) % | 84 (N = 4) % | 83 (N = 4) % | 95 (N = 4) %
10 to 100 | Cc1cc(C)c(C(=O)OCC[N+](C)(C)C2CCCCC2)c(C)c1.[I-] [Example 41, N-[2-((2,4,6-Trimethylbenzoyl)oxy)ethyl]-N,N-dimethylcyclo-hexanaminium iodide] | 13 (N = 4) % | 22 (N = 4) % | 66 (N = 4) % | 89 (N = 4) %
10 to 100 | Cc1ccc(C(=O)OC(C)C[N+](C)(C)C2CCCCC2)cc1.[I-] (stereo not drawn) [Example 42, N,N-Dimethyl-N-[2-((4-methylbenzoyl)oxy)propyl] cyclohexanaminium iodide] | 8 (N = 4) % | 16 (N = 4) % | 45 (N = 4) % | 90 (N = 4) %
10 to 100 | CC(C)(C)c1ccc(C(=O)OCC[N+](C)(C)C2CCCCC2)cc1.[I-] [Example 43, N-[2-((4-(tert-butyl)benzoyl)oxy)ethyl]-N,N-dimethylcyclo-hexanaminium iodide] | 13 (N = 4) % | – | 78 (N = 4) % | –
10 to 100 | Cc1ccc(C(=O)OC(C)C[N+](C)(C)C2CCCCC2)c(C)c1.[I-] (stereo not drawn) [Example 45, N-[2-((2,4-Dimethylbenzoyl)oxy)propyl]-N,N-dimethylcyclo-hexanaminium iodide] | 4 (N = 4) % | 46 (N = 4) % | 72 (N = 4) % | 83 (N = 4) %

The remaining lines, values behind:

Compound | IC50 [µM] | hTRPV1-N1E Nav 0.1 mM (% inhibition) 25° C. | hTRPV1-N1E Nav 1 mM (% inhibition) 25° C. | hTRPV1-N1E Nav 0.1 mM (% inhibition) 47° C. | hTRPV1-N1E Nav 1 mM (% inhibition) 47° C.
Cc1cc(C)c(C(=O)O[C@H](C)C[N+](C)(C)C2CCCCC2)c(C)c1.[I-] [Example 25, (R)-N,N-Dimethyl-N-[2-((2,4,6-trimethylbenzoyl)oxy)propyl] cyclohexanaminium iodide] | 10 to 100 | 48 (N = 4) % | 89 (N = 4) % | – | –
CC(C[N+](C)(C)C1CCCCC1)OC(=O)c1cccc(C(C)C)c1.[I-] (stereo not drawn) [Example 26, N-[2-((3-Isopropylbenzoyl)oxy)propyl]-N,N-dimethylcyclo-hexanaminium iodide] | 10 to 100 | 4 (N = 4) % | 57 (N = 4) % | 88 (N = 4) % | 89 (N = 4) %
CC(C[N+](C)(C)C1CCCCC1)OC(=O)c1c(Cl)cccc1Cl.[I-] (stereo not drawn) [Example 27, N-[2-((2,6-Dichlorobenzoyl)oxy)propyl]-N,N-dimethylcyclo-hexanaminium iodide] | 100 to 1000 | 23 (N = 4) % | 74 (N = 4) % | 73 (N = 4) % | 85 (N = 4) %
Cc1cc(C)c(C(=O)OC(C)C[N+](C)(C)C2CCOCC2)c(C)c1.[I-] (stereo not drawn) [Example 28, N,N-Dimethyl-N-[2-((2,4,6-trimethylbenzoyl)oxy)propyl]tetrahydro-2H-pyran-4-aminium iodide] | – | 0 (N = 4) % | 5 (N = 4) % | 32 (N = 4) % | 58 (N = 4) %
CC(C[N+](C)(C)C1CCCCC1)OC(=O)c1cccs1.[I-] (stereo not drawn) [Example 32, N,N-Dimethyl-N-[2-((thiophene-2-carbonyl)oxy)propyl] cyclohexanaminium iodide] | – | 4 (N = 4) % | 1 (N = 4) % | 48 (N = 4) % | 54 (N = 4) %
CC(C[N+](C)(C)C1CCCCC1)OC(=O)c1ccsc1.[I-] (stereo not drawn) [Example 33, N,N-Dimethyl-N-[2-((thiophene-3-carbonyl)oxy)propyl] cyclohexanaminium iodide] | – | 3 (N = 4) % | 23 (N = 4) % | 36 (N = 4) % | 57 (N = 4) %
CC(C[N+](C)(C)C1CCCCC1)OC(=O)c1cccn1C.[I-] (stereo not drawn) [Example 34, N,N-Dimethyl-N-[2-((1-methyl-1H-pyrrole-2-carbonyl)oxy)propyl] cyclohexanaminium iodide] | – | 35 (N = 4) % | 35 (N = 4) % | 36 (N = 4) % | 55 (N = 4) %
Cc1ccsc1C(=O)OC(C)C[N+](C)(C)C1CCCCC1.[I-] (stereo not drawn) [Example 37, N,N-Dimethyl-N-[2-((3-methylthiophene-2-carbonyl)oxy)propyl] cyclohexanaminium iodide] | – | 15 (N = 4) % | 20 (N = 4) % | 31 (N = 4) % | 70 (N = 4) %
Cc1cccc(C)c1C(=O)OCC[N+](C)(C)C1CCCCC1.[I-] [Example 40, N-[2-((2,6-Dimethylbenzoyl)oxy)ethyl]-N,N-dimethylcyclo-hexanaminium iodide] | – | 10 (N = 4) % | 12 (N = 4) % | 43 (N = 4) % | 80 (N = 4) %
CCc1ccccc1C(=O)OC(C)C[N+](C)(C)C1CCCCC1.[I-] (stereo not drawn) [Example 44, N-[2-((2-Ethylbenzoyl)oxy)propyl]-N,N-dimethylcyclo-hexanaminium iodide] | – | 56 (N = 4) % | 81 (N = 4) % | 89 (N = 4) % | 96 (N = 4) %

Source: patent US9180115B2, “Cyclohexylamines” (Asana Biosciences, LLC, priority 2011, dated 2015)
